According to ChEMBL document CHEMBL1125088, “Stereospecific synthesis, assignment of absolute configuration, and biological activity of the enantiomers of 3-[[[3-[2-(7-chloroquinolin-2-yl)-(E)-ethenyl]phenyl] [[3-(dimethylamino)-3-oxopropyl]thio]methyl]thio]propionic acid, a potent and specific leukotriene D4 receptor antagonist” (J Med Chem, 1990):

How the values were obtained:
Cavia porcellus = species: Cavia porcellus; assay: Antagonist activity of LTD4-induced contractions of isolated guinea pig trachea; format: functional
Rattus norvegicus = species: Rattus norvegicus; assay: Tested for antigen-induced dyspnea in hyperactive rats; format: functional
[1] = target: T1, Cysteinyl leukotriene receptor 1 (Homo sapiens, UniProt Q9Y271); assay: In vitro inhibitory activity against Cysteinyl leukotriene D4 receptor from human lung membrane; format: tissue-based
T1 sequence (Q9Y271 whole entry): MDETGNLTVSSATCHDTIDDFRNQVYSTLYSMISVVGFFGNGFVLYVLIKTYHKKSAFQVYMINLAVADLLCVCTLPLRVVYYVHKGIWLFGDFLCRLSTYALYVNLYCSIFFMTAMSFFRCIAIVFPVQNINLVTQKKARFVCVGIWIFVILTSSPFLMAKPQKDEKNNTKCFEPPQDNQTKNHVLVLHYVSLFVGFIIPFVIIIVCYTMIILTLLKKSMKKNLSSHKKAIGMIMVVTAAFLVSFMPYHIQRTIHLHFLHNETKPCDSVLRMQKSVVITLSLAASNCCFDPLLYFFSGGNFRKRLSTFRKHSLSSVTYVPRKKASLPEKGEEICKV

[2] = target: T2, Cysteinyl leukotriene receptor 1 (Cavia porcellus, UniProt Q2NNR5); assay: Binding affinity against Cysteinyl leukotriene D4 receptor from guinea pig lung membrane; format: tissue-based
T2 sequence (Q2NNR5 whole entry): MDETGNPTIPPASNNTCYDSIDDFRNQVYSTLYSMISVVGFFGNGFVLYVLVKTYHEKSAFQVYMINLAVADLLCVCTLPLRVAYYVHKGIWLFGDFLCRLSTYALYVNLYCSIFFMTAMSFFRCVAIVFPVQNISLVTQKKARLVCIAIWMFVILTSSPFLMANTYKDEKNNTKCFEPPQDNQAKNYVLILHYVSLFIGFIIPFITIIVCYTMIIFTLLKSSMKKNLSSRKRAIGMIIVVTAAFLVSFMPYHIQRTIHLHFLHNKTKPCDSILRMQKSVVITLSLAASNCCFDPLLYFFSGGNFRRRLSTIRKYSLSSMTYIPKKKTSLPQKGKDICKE

IC50 [1]	IC50 [2]	SMILES	-Log KB (Cavia porcellus)	ED50 (Rattus norvegicus)
3.1 nM	0.77 nM	CN(C)C(=O)CCSC(SCCC(=O)[O-])c1cccc(/C=C/c2ccc3ccc(Cl)cc3n2)c1.[Na+] (stereo not drawn)	9	0.097 mg/kg
8 nM	3.2 nM	CN(C)C(=O)CCS[C@H](SCCC(=O)O)c1cccc(/C=C/c2ccc3ccc(Cl)cc3n2)c1 [VERLUKAST]	8.7	0.028 mg/kg
